Assay results reported in patent US8822640B2, “Tetrameric streptavidin mutein with reversible biotin binding capability” (UTI Limited Partnership, priority 2011, dated 2014).
“Also recorded” adds a separate entry of the source. Where two headings read alike, the source gives them in different places.

Tests used:
[1] = BIAcore biosensor kinetic parameters of biotin binding in streptavidin muteins; details: for ka or kon / kd or koff / Kd: BIAcore, biotinylated IgG on chip, mutein injected; for t1/2, half-life of biotin in the SAV-biotin complex: estimated as 0.693/koff/60; for Kd: read-out: Kd (biotin binding affinity)
Description: The kinetic parameters for these muteins were determined using the BIAcore biosensor. Biotinylated IgG proteins were immobilized to the sensor chip and purified streptavidin muteins were injected to determine the binding properties:
(§1) Other methods. BIAcore biosensor for determining the kinetic parameters, preparation of streptavidin-agarose matrix and purification of biotinylated proteins were performed as previously described (Wu and Wong, 2005a; Wu and Wong, 2005b).

[2] = test system: biotinylated protein G and biotinylated IgG; experiment: Mutein-agarose affinity matrix: purification of biotinylated proteins, matrix stability and reuse; details: comparison of FIGS. 7 and 10
Description: as §1
Stable subunit interactions in the 8-aa-loop-H127 mutein. The purified 8-aa-loop-H127C mutein can be immobilized to the agarose matrix with an estimated concentration of 3.8 mg/ml of settled agarose beads. […] Since it is likely that only one subunit in an tetrameric 8-aa-loop-H127C mutein was chemically coupled to the matrix (the other three subunits associated with the immobilized subunit via non-covalent interactions), this observation illustrates that the subunit interactions between the subunits in the tetrameric 8-aa-loop-H127C mutein were stable enough and the non-covalently associated subunits were not washed off from the column under the conditions used for the binding, washing and elution processes.
Application of the 8-aa-loop-H127C mutein-agarose matrices for purification of biotinylated protein G and biotinylated IgG. […] The bound biotinylated proteins could be eluted off from the column using 4 mM biotin (FIGS. 7 and 8).

[3] = Ligand energy inspector, Molegro molecular viewer (MolDock score), biotin binding pocket of subunit A
Description: Replacement of residues in loop7-8 of the wild-type streptavidin results in allowing loop7-8 to become flexible and changing the relative orientation of subunits in the tetrameric structure. These structural changes lead to lowering of the biotin binding affinity in the 8-aa-loop-H127C mutein. The strength of biotin interaction with streptavidin was analyzed using the ligand energy inspector function in the Molegro molecular viewer program (Thomsen and Christensen, 2006). The more the negative value indicates the stronger interaction. […] In reference to the wild-type streptavidin, a few residues in the 8-aa-loop-H127C mutein have a little bit stronger interactions with biotin (data not shown). However, the net outcome is that the 8-aa-loop-H127C mutein has a weaker biotin binding affinity.

[4] = Binding to biotin-agarose, elution with 4 mM biotin, rebinding after dialysis
Description: In order to characterize these muteins, it is essential to purify each of these muteins for further analyses. […] After dialysis to remove any biotin from the pooled elution fraction, the purified muteins could rebind to the biotin-agarose matrix and could be eluted off again by 4 mM biotin in the buffer. This indicates the reversible biotin binding capability in these muteins.
Production and affinity purification of streptavidin muteins. Bacillus subtilis cells carrying the expression vectors were cultivated in super-rich medium (Wu et al., 2002) at 30° C. for 9-12 hours. Culture supernatant was collected by centrifugation and streptavidin muteins were affinity purified using biotin-agarose as described previously (Wu and Wong, 2005a).
Bound biotin in the 8-aa-loop-H127C mutein can be removed by dialysis. Purified 8-aa-loop-H127C muteins eluted from the biotin agarose by 4 mM biotin will contain bound biotin. If biotin binding is reversible, bound biotin should be removable by dialysis. Indeed, the dialyzed 8-aa-loop-H127C muteins could rebind to the biotin-agarose column and could be eluted off from the column by 4 mM biotin in the elution buffer (FIG. 5). […] Some 8-aa-loop-H127C mutein molecules could be observed in the flow-through fraction. This is probably because of overloading the column with excess muteins.

[5] = literature values, cited from earlier work
[6] = known value, cited from earlier work

6-aa-loop mutein: streptavidin mutein with engineered loop7-8 D S N G S G (SEQ ID NO: 16) (DSNGSG; listed as Bacillus subtilis)
ka or kon [1]: 24300 M⁻¹ s⁻¹
kd or koff [1]: 7.59e-05 s⁻¹
t1/2, half-life of biotin in the SAV-biotin complex [1]: 152 min

8-aa-loop-H127C mutein: tetrameric streptavidin mutein, loop7-8 replaced by D S S N G S D G, with H127C mutation (SEQ ID NO: 14) (DSSNGSDG; listed as Bacillus subtilis)
binding capacity of the matrix for biotinylated protein G [2]: much better binding capacity than the matrix with the Roche streptavidin mutein
ka or kon [1]: 22100 M⁻¹ s⁻¹
kd or koff [1]: 0.000428 s⁻¹
Kd [1]: 19 nM
t1/2, half-life of biotin in the SAV-biotin complex [1]: 27 min
Difference (wild-type − mutein), Asn 23 ([3]; residue contribution): −1.1
Difference (wild-type − mutein), Asp128 ([3]; residue contribution): −3.3
Difference (wild-type − mutein), Leu 25 ([3]; residue contribution): −0.8
Difference (wild-type − mutein), Lys 121 (from subunit D) ([3]; residue contribution): −1.3
Difference (wild-type − mutein), Ser 45 ([3]; residue contribution): −1.4
Difference (wild-type − mutein), Trp 120 (from subunit D) ([3]; residue contribution): −10.5
Difference (wild-type − mutein), MolDock score ([3]; total): −14.4
reversible biotin binding [4]: can bind to biotin-agarose and can be eluted off from the matrix by 4 mM biotin; also recorded: biotin binds to this protein in a reversible manner

W120A mutein: streptavidin mutein with Trp-120 changed to alanine [reference compound]
Kd ([5]; read-out: dissociation constant (Kd) for biotin): 3 nM

Wild-type streptavidin: 52,800 dalton tetrameric protein from Streptomyces avidinii, SEQ ID NO:1
isoelectric point (pI) [6]: ~5
isoelectric point (pI) ([6]; listed as natural streptavidin): 5-6
dissociation constant (Kd) for biotin [5]: 10^−13 to 10^−14 M

ΔWHC: streptavidin mutein with Trp-120 deleted (loop T T E A N A K) and H127C mutation (SEQ ID NO: 13) (TTEANAK; listed as Bacillus subtilis)
ka or kon [1]: 49600 M⁻¹ s⁻¹
kd or koff [1]: 0.0004 s⁻¹
Kd ([1]; listed as ΔW-HC): 8.1 nM
Kd [1]: ~1 nM
t1/2, half-life of biotin in the SAV-biotin complex [1]: 28.9 min
